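Each compound was tested at five concentrations against cells in 96-well plates for 48 hours. GI50 is the concentration that inhibits growth by half.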 Active and inactive are the calls of the source. No stated cut-off is given here; in the data, active = GI50 up to about 1.1 µM and inactive = higher.
Columns and labels:
Experiment in all cases: DTP human tumour cell line panel, 48 h
786-0 = tested on: 786-0
A549 = tested on: A549
BT-549 = tested on: BT-549
COLO 205 = tested on: COLO 205
K562 = tested on: K562
LOX IMVI = tested on: LOX IMVI
M14 = tested on: M14
MCF7 = tested on: MCF7
MDA-MB-231 = tested on: MDA-MB-231
MDA-MB-435 = tested on: MDA-MB-435
MOLT-4 = tested on: MOLT-4
NCI/ADR-RES = tested on: NCI/ADR-RES
OVCAR-3 = tested on: OVCAR-3
OVCAR-8 = tested on: OVCAR-8
SK-MEL-2 = tested on: SK-MEL-2
SK-MEL-5 = tested on: SK-MEL-5
SNB-19 = tested on: SNB-19
TK-10 = tested on: TK-10
U-251 = tested on: U-251
UACC-257 = tested on: UACC-257

Measured: GI50

Cc1cccc2c(N)c3cccc(C(=O)NCC[N+](C)(C)Cc4c([N+](=O)[O-])ncn4C)c3nc12
inactive: 786-0 6.5 µM | A549 3.78 µM | BT-549 46.1 µM | COLO 205 24.3 µM | K562 11.1 µM | LOX IMVI 11.4 µM | M14 52.4 µM | MCF7 12.8 µM | MDA-MB-231 38.5 µM | MDA-MB-435 52.6 µM | MOLT-4 3.05 µM | NCI/ADR-RES > 49.9 µM | OVCAR-3 41.8 µM | OVCAR-8 26.3 µM | SK-MEL-2 > 80.5 µM | SK-MEL-5 26.1 µM | SNB-19 25.8 µM | TK-10 56.2 µM | U-251 29.9 µM | UACC-257 49.9 µM

Nc1ccc(C(=O)Nc2ccccc2N)cc1 [DINALINE]
inactive: 786-0 > 66.4 µM | A549 38.6 µM | BT-549 67.6 µM | COLO 205 17.6 µM | K562 14.1 µM | LOX IMVI 21 µM | M14 65.2 µM | MCF7 20.9 µM | MDA-MB-231 30.3 µM | MDA-MB-435 20.4 µM | MOLT-4 11.8 µM | NCI/ADR-RES 3.21 µM | OVCAR-3 29.1 µM | OVCAR-8 8.99 µM | SK-MEL-2 23.3 µM | SK-MEL-5 16.3 µM | SNB-19 > 100 µM | TK-10 6.32 µM | U-251 17.7 µM | UACC-257 17.7 µM

CC(=O)[C@H]1CC[C@H]2[C@@H]3CCC4=CC(=O)CC[C@]4(C)[C@H]3CC[C@]12C [PROGESTERONE]
inactive: 786-0 20.6 µM | A549 25.3 µM | BT-549 16 µM | COLO 205 16 µM | K562 10.6 µM | LOX IMVI 17.5 µM | M14 17.5 µM | MCF7 21.7 µM | MDA-MB-231 17.2 µM | MDA-MB-435 19.8 µM | MOLT-4 12.1 µM | NCI/ADR-RES 13.7 µM | OVCAR-3 17.3 µM | OVCAR-8 18.4 µM | SK-MEL-2 20 µM | SK-MEL-5 12.1 µM | SNB-19 24.1 µM | TK-10 23.9 µM | U-251 17.3 µM | UACC-257 12.9 µM
